Laboratory results: paper PMC6412019, “Discovery of NV-5138, the first selective Brain mTORC1 activator” (Scientific Reports, 2019)

Tested on: HeLa cells
Experiment: 14C-leucine protein incorporation assay in HeLa cells
Format: cell-based, human
Conditions: 30 min labeling, CHX 10 ug/ml
Procedure: Since NV-5138 is an amino acid, we performed two different experiments to rule out any potential liabilities that could arise from the incorporation of NV-5138 into proteins. We first determined whether NV-5138 substitutes for any branched-chain amino acid or methionine into newly synthesized proteins using liquid chromatography followed by tandem mass spectroscopy (LC-MS/MS). NV-5138 (100 µM) or vehicle was incubated with serum and leucine-starved 293T cells for 6 hours followed by proteomic analysis by mass spectrometry.
After incubation, cells were harvested and lysed in Tris/HCl 10 mM pH 7.4 plus 1% NP40. Lysate were mixed with water and 20% trichloroacetic acid (1:1:2) and incubated on ice for 2 h to precipitate the protein. Proteins were collected by centrifugation, solubilized in NaOH, placed in scintillation fluid and read on a Wallac Microbeta Trilux 2450 with a 2-min count. Scintillation values were normalized as the percentage of the counts from the DMSO-treated wells.

C[C@@H]1C[C@@H]([C@H](O)CC2CC(=O)NC(=O)C2)C(=O)[C@@H](C)C1 [cyclohexamide, reference compound]
effect on incorporation of 14C-leucine into precipitated proteins: blocked incorporation
